Experimental data: US12060408B2, “Screening assays, modulators and modulation of activation of Receptor for Advanced Glycation End-products (RAGE)” (Monash University, priority 2017, dated 2024)
“Also recorded” adds a separate entry of the source.

Key:
[1] = system: primary murine aortic endothelial cells (PMAEC); assay: Expression of pro-inflammatory markers by real-time RT-PCR in primary murine aortic endothelial cells; assay type: cell-based, mouse
Method: Primary aortic endothelial cells (PMAEC) were isolated from the aortae of (wild-type) C57bl6 mice and AGER KO mice and cultured in Dulbecco's modified Eagle's medium (DMEM)/F12 endothelial cell growth supplement (ECGS) supplemented media. Chinese Hamster Ovary (CHO) cells were cultured using F12 media (10% FCS with 2 mM glutamine). Human microvascular endothelial cells (HMEC) were cultured in MCDB 131 medium (10% FCS with 10 mM glutamine, EGF and hydrocortisone).
(§1) Cellular Expression of Pro-Inflammatory Markers and Mediators by Quantitative Real-Time PCR
(§2) After 2 hours of exposure to Ang II (1 μM) or the RAGE ligand, S100A8/A9 (5 ng/ml) cells were placed in Trizol, mRNA extracted and cDNA synthesized. Changes in the gene expression of the NFκB subunit, p65 (RelA) or NFκB-activated target genes (e.g ICAM-1, VCAM-1) were estimated by quantitative real-time RT-PCR, performed using the TaqMan system based on real-time detection of accumulated fluorescence (ABI Prism 7700, Perkin-Elmer Inc, PE Biosystems, Foster City, CA, USA). Gene expression was normalized to 18S mRNA and reported as fold change compared to the level of expression in untreated control mice/cells, which were given an arbitrary value of 1.
Selective Silencing of Gene Expression Using siRNA
PMAEC from C57b/6 mice were also transfected with siRNA to RAGE (2 nM) Ambion, ID:s62119), p65 (RelA) (10 nM; Ambion, ID:s72857), MyD88 (10 nM; Ambion. ID:s201719), PKCζ (10 nM; Ambion, ID:s71716), IQGAP-1, Ambion, ID:s78119), Diaph1 (10 nM; sense5′-[…], antisense 3′-[…]; Invitrogen) or scrambled control #1 (2 nM or 10 nM; Ambion) using Lipofectamine RNAiMAX (Invitrogen) as per manufacturer's instructions. Cells were allowed to recover in media containing 10% FBS for 16 hours prior to treatment with 1 μM Ang II or 5 ng/ml of the RAGE ligand, S100A8/A9, as a signalling control.

[2] = system: RAGE ligand-independent activation of RAGE by activated AT1R; assay: Ang II-induced NFκB activation (p65 gene expression, SEAP reporter) in AT1R-CHO cells with RAGE constructs; assay type: cell-based, human
Method: Generation of Transgenic Chinese Hamster Ovary Cells
100 ng of AT1R-Rluc8 construct was transfected into CHO cells using Lipofectamine 2000 (Thermo). Stable transfectants were selected using G418. AT1R—CHO were then transiently transfected with RAGE constructs using Lipofectamine 2000 (Invitrogen) and incubated for 16 h. The Homo sapiens AGER transcript variant 1 coding sequence (NM_001136) was synthesised and cloned between the NheI and XbaI sites of pCIneo (Promega) to generate the vector pCIneo-RAGE. This plasmid was then used to generate a library of mutant AGER clones (NP_001127). Primers 1-RAGE-SP-5′ and mCherry-XhoI-NotI-3′ were used to amplify the coding sequence of mCherry from the vector pmCherry-C1. The resultant PCR product was then used as template for a second PCR using primers 2-RAGE-SP-5′ and mCherry-XhoI-NotI-3′. The PCR product generated was digested with NheI and NotI and inserted between the NheI and NotI sites of pCIneo to generate pCIneo-SP-mCherry. The sequence of the insert was confirmed by DNA sequencing (Micromon, Monash University). […]
as §1, §2
Oligopeptides (Cherry-TAT (control), mCherry-TAT-RAGE362-404 and mCherry-S391A-TAT-RAGE362-404 were generated by transformation of the Escherichia coli strain ClearColi BL21 (DE3; Lucigen). A single transformed colony was inoculated into 50 ml 2YT medium containing 100 μg/ml ampicillin and the culture was grown overnight at 37° C. with shaking at 250 rev/min. 10 ml overnight culture was used to inoculate 1 litre 2YT medium containing 100 μg/ml ampicillin and the culture was grown at 37° C. with shaking at 250 rev/min. When the cultures reached an OD600 of 0.8, the temperature was shifted to 15° C. for 30 min after which protein expression was induced by the addition of 1 mM isopropyl β-D-1-thiogalacto-pyranoside (IPTG). Following the addition of IPTG the cultures were grown for ˜16 h at 15° C. with shaking at 250 rev/min. Cells were harvested by centrifugation (3500 g, 4° C., 20 min) and resuspended in ice-cold lysis buffer (50 mM Tris pH 7.4, 300 mM NaCl, 10 mM imidazole and 5 mM beta-mercaptoethanol). The resuspended cells were sonicated and insoluble material was pelleted by centrifugation (13 000 g, 4° C., 30 min). The supernatant was filtered (0.2 μm) and applied onto a gravity-flow column with a 1 ml Ni-NTA Agarose resin bed volume (Qiagen) pre-equilibrated with lysis buffer. After the supernatant was passed over the resin, the column was washed with 100 ml of wash buffer (20 mM imidazole, 50 mM Tris pH 7.4, 150 mM NaCl, 5 mM beta-mercaptoethanol). His-tagged TAT-mCherry and TAT-mCherry-RAGE peptides were eluted from the resin using elution buffer (250 mM imidazole, 50 mM Tris pH 7.4, 150 mM NaCl, 5 mM beta-mercaptoethanol). […]

AT1 = molecular target: T1, AT1 (Homo sapiens, UniProt P30556); assay: Classical GPCR signalling (IP-one HTRF, EGR1) in AT1R-CHO cells; assay type: cell-based; design: expressed in transfected cells; settings: 1 μM
T1 sequence (P30556 1-359): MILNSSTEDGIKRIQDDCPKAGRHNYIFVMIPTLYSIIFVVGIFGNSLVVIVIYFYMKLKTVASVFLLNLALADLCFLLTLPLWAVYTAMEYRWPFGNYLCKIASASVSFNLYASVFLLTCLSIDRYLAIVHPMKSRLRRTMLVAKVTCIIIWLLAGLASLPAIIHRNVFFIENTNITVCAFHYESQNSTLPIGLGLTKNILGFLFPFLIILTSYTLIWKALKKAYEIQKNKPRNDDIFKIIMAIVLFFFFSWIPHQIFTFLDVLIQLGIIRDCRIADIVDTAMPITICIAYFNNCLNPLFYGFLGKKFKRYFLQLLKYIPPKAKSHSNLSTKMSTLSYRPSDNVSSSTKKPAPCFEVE

Substance	inhibition of VCAM-1 induction in response to Ang II or S100A8/A9 ([1]; PMAEC endogenously replete in RAGE)	inhibition of Ang II-dependent p65 induction after pre-treatment with wild-type RAGE362-404 peptide ([2]; AT1R-CHO cells)	inhibition of Ang II-dependent p65 induction with subsequent wild-type RAGE362-404 in thousand-fold excess ([2]; AT1R-CHO cells)	inhibition of Ang II-induced p65 and PCNA gene expression in the absence of targets for RAGE phosphorylation ([2]; AT1R-CHO cells transfected with full length S391Q-cRAGE)	ability of the RAGE construct to be activated and mediate pro-inflammatory signalling in response to Ang II ([2]; construct expressed in AT1R-CHO cells, no wild-type RAGE)	inhibition of RAGE ligand-independent activation of wild-type RAGE by activated AT1R ([2]; summary statement, cell system not given)	induction of pro-inflammatory genes ([1]; PMAEC from AGER KO mice)	markers of canonical or non-canonical activation of NFκB ([1]; PMAEC from AGER KO mice)	canonical and non-canonical signalling downstream of NFκB (CXCL2, CXCL12) ([1]; PMAEC from C57bl6 mice)	expression of pro-inflammatory genes (ICAM-1, VCAM-1, TNFα, MCP-1) ([1]; PMAEC from C57bl6 mice, Ang II 1 μM or S100A8/A9)	NFκB-dependent induction of VCAM-1 gene expression ([1]; PMAEC with AGER expression silenced using siRNA)	activation of p65-NFκB ([2]; AT1R-CHO cells expressing full-length human RAGE, 1 μM)	expression of p65-NFκB / NFκB activation ([2]; AT1R-CHO cells without RAGE, 1 μM)	classical responsiveness: inositol phosphate synthesis and EGR1 induction (AT1)
L362WQRRQRRGEERKAPENQEEEEERAELNQAEEPEAGESSTGGP404 (LWQRRQRRGEERKAPENQEEEEERAELNQAEEPEAGESSTGGP; listed as Homo sapiens) [S391A-RAGE362-404, S391A mutant RAGE cytosolic tail; non-functional substitute for RAGE]	inhibitory effect	not reversed	observed	maintained; also recorded: inhibitory effects	not activated	inhibits	–	–	–	–	–	–	–	–
angiotensin II (DRVYIHPF) [Ang II, cognate ligand of AT1R]	–	–	–	–	–	–	does not lead to the induction	does not lead to	induction of both canonical and non-canonical signalling	increased expression	preventing	able to induce activation	unable to induce	induction
